Laboratory results from PubChem BioAssay (NCI).
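Values below derive from 48-hour exposures of cells grown in 96-well plates, with endpoints linearly interpolated between the two concentrations bracketing the appropriate inhibition level. TGI denotes the concentration required for complete inhibition of growth.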

What was measured:
Test in all cases: NCI-60 cell line screen, 48 h
[1] = tested on: DMS 114 small cell lung
[2] = tested on: RXF-631 renal
[3] = tested on: HOP-18 NSCLC
[4] = tested on: SNB-78 CNS
[5] = tested on: XF 498 CNS

SMILES	TGI [1]	TGI [2]	TGI [3]	TGI [4]	TGI [5]
CCCCCCCCOCC(COC(=O)CCCCCCC)OC(=O)CCCCCCC (centres undefined)	> 100 µM	> 100 µM	> 100 µM		
O=C(c1ccccc1)C1(Br)S(=O)(=O)OCCOS1(=O)=O	> 100 µM			> 100 µM	> 100 µM
CCOC(=O)C1S(=O)(=O)OCCOS1(=O)=O		> 100 µM		> 100 µM	> 100 µM
CC(C)(CN1CCCCC1)C(=O)/C=C/c1ccc(Br)cc1	3.44 µM		6.83 µM	31.6 µM	6.21 µM
C1CCC(N=C2N(C3CCCCC3)C(=NC3CCCCC3)N2C2CCCCC2)CC1	> 100 µM		> 100 µM		> 100 µM
O=C1c2ccccc2N2OC3(N4CCOCC4)CCCC3C12c1ccccc1 (centres undefined)	> 100 µM		> 100 µM	> 100 µM	> 100 µM
CCOC(=O)/C(=C/c1ccccn1)C(=O)c1ccccc1	28.5 µM	28.9 µM	32.7 µM	38.9 µM	30.3 µM
NNC(=O)C(=O)NN=C(C(Cl)(Cl)CO)C(Cl)(Cl)CO		55.7 µM	> 100 µM	> 100 µM	> 100 µM
COc1ccc2ccccc2c1C1=NC(C)(C)CO1		> 100 µM	> 100 µM		> 100 µM
CC(=O)OC1COC(N2CCc3cc([N+](=O)[O-])ccc32)C(OC(C)=O)C1OC(C)=O (centres undefined)	> 100 µM			> 100 µM	> 100 µM
COC(=O)C(C(=O)C(=O)Nc1c(Cl)cc([N+](=O)[O-])cc1Cl)c1csc(-n2nc(C3=CCCCC3)cc2-c2ccccc2)n1 (centres undefined)		> 100 µM	> 100 µM	> 100 µM	
C1CSCCSCCCS[C@@H]2CCCCC2SC1 (some centres undefined)	65.4 µM		> 100 µM	> 100 µM	
COc1ccc(-c2c(C3=NCCCN3)nnn2-c2ccccc2)cc1	> 100 µM		> 100 µM	> 100 µM	> 100 µM
O=C1CC(c2ccc(Cl)cc2)=Nc2ccccc2N1	> 100 µM	> 100 µM	> 100 µM	> 100 µM	
